The source of these data is PubChem BioAssay (NCI).

The structures appear in SMILES notation.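 1) Cells in 96-well plates. 2) Compound, 48 h, 5 concentrations. 3) Linear interpolation between surrounding doses. 4) Unreached endpoint = highest concentration. Here, GI50 denotes the concentration required for 50% inhibition of growth. The concentration for full growth arrest is given as TGI.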

Test systems include IGROV1 ovarian; HOP-92 NSCLC; HS 578T breast; DU-145 prostate; NCI/ADR-RES ovarian; RXF 393 renal; SNB-19 CNS; OVCAR-8 ovarian; OVCAR-5 ovarian; SK-MEL-2 melanoma.
What all share (experiment): growth of human tumour cells (NCI), 48 h

As for `Cc1ccc2ccccc2c1CSc1nc(N)nc2c1ncn2CC(C)C`, the TGI is > 100 µM in the experiment on IGROV1 ovarian; > 100 µM in the experiment on HOP-92 NSCLC; > 100 µM with HS 578T breast; > 100 µM in the experiment on DU-145 prostate; > 100 µM in the experiment with NCI/ADR-RES ovarian; > 90.7 µM with RXF 393 renal. The TGI with SNB-19 CNS was > 100 µM; in the experiment with OVCAR-8 ovarian, > 100 µM; in the experiment on OVCAR-5 ovarian, > 100 µM; with SK-MEL-2 melanoma, > 73.9 µM.
As to `C=CCc1c(O)c(C(=O)/C=C/c2ccc(Cl)cc2)c(OC)c2ccoc12`, the GI50 was 3.46 µM in the experiment with IGROV1 ovarian; 1.69 µM in the experiment on HOP-92 NSCLC; 4.02 µM with HS 578T breast; 3.85 µM with DU-145 prostate; 2.23 µM in the experiment with NCI/ADR-RES ovarian; 1.72 µM with RXF 393 renal. In addition, the GI50 in the experiment on SNB-19 CNS is 2.85 µM; with OVCAR-8 ovarian it was 3.04 µM; in the experiment with OVCAR-5 ovarian it was 2.8 µM; in the experiment with SK-MEL-2 melanoma, 3.97 µM. The TGI turned out to be 14.9 µM in the experiment with IGROV1 ovarian; 5.94 µM in the experiment with HOP-92 NSCLC; 42.4 µM with HS 578T breast; 18.1 µM with DU-145 prostate; 5.86 µM in the experiment with NCI/ADR-RES ovarian; 3.6 µM in the experiment on RXF 393 renal. The TGI in the experiment with SNB-19 CNS is 8.15 µM; in the experiment with OVCAR-8 ovarian, 12 µM; in the experiment with OVCAR-5 ovarian, 9.71 µM; in the experiment with SK-MEL-2 melanoma, 14.7 µM.
Take `CCN(CC)CCOc1nc2ccccc2c2c1-c1ccc(OC)cc1C2=O`: the GI50 in the experiment on IGROV1 ovarian is 0.384 µM; with HOP-92 NSCLC, 2.09 µM; in the experiment on HS 578T breast it was 1.19 µM; in the experiment on DU-145 prostate it was 0.505 µM; in the experiment on NCI/ADR-RES ovarian, 0.807 µM; in the experiment on RXF 393 renal, 1.63 µM. Besides, the GI50 in the experiment with SNB-19 CNS was 0.788 µM; in the experiment with OVCAR-8 ovarian it was 0.527 µM; in the experiment on OVCAR-5 ovarian, 1.61 µM; in the experiment with SK-MEL-2 melanoma, 2.14 µM. The TGI with IGROV1 ovarian is 2.63 µM; in the experiment on HOP-92 NSCLC, > 28.6 µM; with HS 578T breast, 5.78 µM; with DU-145 prostate, 2.16 µM; in the experiment on NCI/ADR-RES ovarian it was 34.5 µM; in the experiment on RXF 393 renal, 4.44 µM. Also, the TGI in the experiment with SNB-19 CNS is 6.6 µM; in the experiment on OVCAR-8 ovarian it was 5.7 µM; in the experiment with OVCAR-5 ovarian it was 7.51 µM; in the experiment on SK-MEL-2 melanoma it was 4.36 µM.
In the case of `CN1C(=O)N(C)C2C1NC(=S)N2/N=C/C=C/c1ccccc1[N+](=O)[O-]` (stereo not given), the GI50 is 2.48 µM in the experiment on IGROV1 ovarian; 57.7 µM with HOP-92 NSCLC; 0.646 µM with HS 578T breast; 3.81 µM with DU-145 prostate; 2.16 µM with NCI/ADR-RES ovarian; 2.42 µM in the experiment on RXF 393 renal. For the same compound, the GI50 in the experiment with SNB-19 CNS is 0.952 µM; with OVCAR-8 ovarian it was 3.11 µM; with OVCAR-5 ovarian it was 3.88 µM; in the experiment with SK-MEL-2 melanoma it was 0.587 µM. The TGI in the experiment on IGROV1 ovarian, in the experiment with HOP-92 NSCLC, in the experiment with HS 578T breast, with DU-145 prostate, in the experiment with NCI/ADR-RES ovarian and with RXF 393 renal was > 100 µM each time. The TGI in the experiment on SNB-19 CNS, with OVCAR-8 ovarian, in the experiment on OVCAR-5 ovarian and in the experiment with SK-MEL-2 melanoma was > 100 µM in each case.
With `N#C/C(=C\c1ccc[nH]1)c1cc(-c2ccc(Cl)cc2)nn1-c1ccccc1`, the GI50 in the experiment with IGROV1 ovarian was 14 µM; with HOP-92 NSCLC, 2.54 µM; with HS 578T breast it was 2.17 µM; in the experiment on DU-145 prostate it was 3.81 µM; in the experiment on NCI/ADR-RES ovarian, 3.93 µM; in the experiment with RXF 393 renal it was 6.89 µM. Further, the GI50 in the experiment on SNB-19 CNS is 9.35 µM; in the experiment on OVCAR-8 ovarian, 11.5 µM; with OVCAR-5 ovarian, 15.7 µM; in the experiment on SK-MEL-2 melanoma, 8.65 µM. Also, the TGI with IGROV1 ovarian was > 95.4 µM; in the experiment with HOP-92 NSCLC, 10.2 µM; in the experiment with HS 578T breast, 14.1 µM; in the experiment with DU-145 prostate, > 40.7 µM; in the experiment with NCI/ADR-RES ovarian, > 31.4 µM; with RXF 393 renal, 24.2 µM. In addition, the TGI with SNB-19 CNS was > 56.9 µM; with OVCAR-8 ovarian it was > 100 µM; in the experiment with OVCAR-5 ovarian it was 50.3 µM; in the experiment with SK-MEL-2 melanoma, 34.6 µM.
For `Nc1ccc(C#Cc2ccccc2C#CCCCCO)cc1`, the GI50 with IGROV1 ovarian is 16.1 µM; in the experiment on HOP-92 NSCLC, 15.5 µM; in the experiment with HS 578T breast, 26.8 µM; with DU-145 prostate it was 18.4 µM; in the experiment on NCI/ADR-RES ovarian, 18.9 µM; in the experiment with RXF 393 renal, 4.69 µM. Further, the GI50 with SNB-19 CNS was 17.5 µM; in the experiment on OVCAR-8 ovarian, 17 µM; in the experiment on OVCAR-5 ovarian it was 16.4 µM; in the experiment on SK-MEL-2 melanoma it was 18.8 µM. Besides, the TGI was 30.2 µM in the experiment with IGROV1 ovarian; 32.1 µM in the experiment with HOP-92 NSCLC; 64.7 µM in the experiment with HS 578T breast; 35.1 µM with DU-145 prostate; 40.4 µM in the experiment on NCI/ADR-RES ovarian; 20.5 µM in the experiment on RXF 393 renal. The TGI in the experiment with SNB-19 CNS is 31.3 µM; in the experiment on OVCAR-8 ovarian, 33.5 µM; in the experiment on OVCAR-5 ovarian, 31.3 µM; with SK-MEL-2 melanoma, 37.1 µM.
As for `CC12CCC(C1)C(C)(C)C2OC(=O)c1ccccc1N` (stereo not given), the TGI in the experiment with IGROV1 ovarian amounted to 40.5 µM; in the experiment with HOP-92 NSCLC, 24.4 µM; in the experiment on HS 578T breast, 31.5 µM; with DU-145 prostate, 33.3 µM; in the experiment with NCI/ADR-RES ovarian it was 31.7 µM; with RXF 393 renal it was 25.7 µM. Besides, the TGI is 31.9 µM in the experiment on SNB-19 CNS, 38.5 µM with OVCAR-8 ovarian, 35 µM in the experiment with OVCAR-5 ovarian and 29.5 µM in the experiment with SK-MEL-2 melanoma.
Regarding `COC(=O)[C@]1(C)CCC[C@@]2(C)C3=C(CC[C@H]12)C[C@@H](CC(OC(C)=O)OC(C)=O)[C@@H](C)C3`, the GI50 in the experiment with IGROV1 ovarian is 14.5 µM; in the experiment with HOP-92 NSCLC, 9.95 µM; in the experiment on HS 578T breast, 10.9 µM; in the experiment on DU-145 prostate, 10.4 µM; in the experiment with NCI/ADR-RES ovarian it was 8.95 µM; with RXF 393 renal, 7.03 µM. The GI50 in the experiment with SNB-19 CNS is 13.5 µM; in the experiment on OVCAR-8 ovarian it was 10.2 µM; in the experiment on OVCAR-5 ovarian it was 9.89 µM; with SK-MEL-2 melanoma, 15.9 µM. For the same compound, the TGI was > 37.1 µM in the experiment with IGROV1 ovarian; 19.9 µM with HOP-92 NSCLC; 23 µM in the experiment on HS 578T breast; 23.3 µM in the experiment on DU-145 prostate; 16.3 µM in the experiment with NCI/ADR-RES ovarian; 16.1 µM in the experiment on RXF 393 renal. Further, the TGI was 32.1 µM in the experiment on SNB-19 CNS, 20.5 µM in the experiment with OVCAR-8 ovarian, 18.4 µM with OVCAR-5 ovarian and > 37.4 µM in the experiment with SK-MEL-2 melanoma.
